Measured values as given in US6274715A, “Tricyclic erythromycin derivatives” (priority 1997, dated 2001).
≈ marks a conversion by molar mass, not a printed value. Like-named read-outs stand apart in the source and are kept apart here.

How the values were obtained:
Type in all cases: cell-based
[1] = tested on: PSEUDOMONAS AERUGINOSA BMH10; test: In vitro antibacterial activity, MIC, BHI agar dilution
[2] = tested on: PSEUDOMONAS AERUGINOSA DPHD-2862; test: as above; conditions: P. aeruginosa DPHD-2862, unit assumed
[3] = tested on: STAPHYLOCOCCUS AUREUS A5177; test: as above; conditions: S. aureus A5177, unit assumed
[4] = tested on: STAPHYLOCOCCUS AUREUS CMX 553; test: as above
[5] = tested on: STAPHYLOCOCCUS EPIDERMIDIS 3519; conditions: S. epidermidis 3519; BHI agar; unit assumed
[6] = tested on: ACINETOBACTER CALCOACETICUS CMX 669; test: In vitro antibacterial activity, MIC, BHI agar dilution; conditions: A. calcoaceticus CMX 669, unit assumed
[7] = tested on: STAPHYLOCOCCUS AUREUS A-5278; test: as above; conditions: S. aureus A-5278, unit assumed
[8] = tested on: ENTEROBACTER AEROGENES ATCC 13048; test: as above
[9] = tested on: STAPHYLOCOCCUS AUREUS CMX 642A; test: as above; conditions: S. aureus CMX 642A
ESCHERICHIA COLI SS = test: as above; conditions: E. coli SS, unit assumed
[10] = tested on: STAPHYLOCOCCUS AUREUS 1775; test: as above; conditions: S. aureus 1775, unit assumed
[11] = tested on: STAPHYLOCOCCUS AUREUS ATCC 6538P; test: as above; conditions: S. aureus ATCC 6538P, 35-37° C., 20 to 24 hours, unit assumed
ESCHERICHIA COLI JUHL = conditions: E. coli JUHL; BHI agar; unit assumed
M[…] ATCC 4698 = test: In vitro antibacterial activity, MIC, BHI agar dilution
Summary of the method: (§1)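 MIC was read visually as the lowest drug level with no growth, a slight haze or sparsely isolated colonies relative to a compound-free growth control. Organisms were spotted at 1:100 dilution (1:10 for slow-growing strains) onto Brain Heart Infusion agar containing serial compound dilutions and incubated 20 to 24 hours at 35-37° C.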

STR[…] 508 = test: as above
Summary of the method: as §1

EN[…] ATCC 8043 = test: as above; conditions: E. faecium ATCC 8043, unit assumed
Summary of the method: as §1

M[…] ATCC 9341 = test: as above
Summary of the method: as §1

[12] = tested on: STREPTOCOCCUS BOVIS A-5169; test: as above
PSEUDOMONAS CEPACIA 296I = test: as above; conditions: P. cepacia 296I, unit assumed
[13] = tested on: STAPHYLOCOCCUS AUREUS NCTC10649M; test: as above; conditions: S. aureus NCTC10649M
[14] = tested on: KLEBSIELLA PNEUMONIAE ATCC 8045; test: as above
CANDIDA ALBICANS CCH 442 = test: as above; conditions: C. albicans CCH 442, unit assumed
[15] = tested on: STREPTOCOCCUS PYOGENES EES61; test: as above; conditions: S. pyogenes EES61, unit assumed
[16] = tested on: PSEUDOMONAS AERUGINOSA 5007; test: as above
[17] = tested on: PSEUDOMONAS AERUGINOSA K799/61; test: as above
[18] = tested on: PSEUDOMONAS AERUGINOSA DPHD-5263; test: as above; conditions: P. aeruginosa DPHD-5263, unit assumed
[19] = tested on: PROVIDENCIA STUARTII CMX 640; conditions: P. stuartii CMX 640; BHI agar; unit assumed
[20] = tested on: MYCOBACTERIUM SMEGMATIS ATCC 114; test: In vitro antibacterial activity, MIC, BHI agar dilution; conditions: M. smegmatis ATCC 114, unit assumed
[21] = tested on: PSEUDOMONAS AERUGINOSA K799/WT; test: as above; conditions: P. aeruginosa K799/WT
ESCHERICHIA COLI DC-2 = test: as above
ESCHERICHIA COLI KNK 437 = conditions: E. coli KNK 437, BHI agar, unit assumed
ESCHERICHIA COLI H560 = test: In vitro antibacterial activity, MIC, BHI agar dilution; conditions: E. coli H560, unit assumed
[22] = tested on: STREPTOCOCCUS PYOGENES PIU 2548; test: as above
[23] = tested on: STREPTOCOCCUS PYOGENES 930; test: as above; conditions: S. pyogenes 930, unit assumed
[24] = P. aeruginosa BMH10, unit assumed
[25] = S. aureus CMX 553, unit assumed
[26] = E. aerogenes ATCC 13048, unit assumed
[27] = M. luteus ATCC 4698, unit assumed
[28] = S. agalactiae CMX 508, unit assumed
[29] = M. luteus ATCC 9341, unit assumed
[30] = K. pneumoniae ATCC 8045, unit assumed
[31] = P. aeruginosa 5007, unit assumed
[32] = P. aeruginosa K799/61, unit assumed

| Structure (SMILES) | MIC [1, 24] [µg/mL] | MIC [2] [µg/mL] | MIC [3] [µg/mL] | MIC [4, 25] [µg/mL] | MIC [5] [µg/mL] | MIC [6] [µg/mL] | MIC [7] [µg/mL] | MIC [8, 26] [µg/mL] | MIC ([9]; unit assumed) [µg/mL] | MIC (ESCHERICHIA COLI SS) [µg/mL] | MIC [10] [µg/mL] | MIC [11] [µg/mL] | MIC (ESCHERICHIA COLI JUHL) [µg/mL] | MIC (M[…] ATCC 4698; [27]) [µg/mL] | MIC (EN[…] ATCC 8043) [µg/mL] | MIC (PSEUDOMONAS CEPACIA 296I) [µg/mL] | MIC (CANDIDA ALBICANS CCH 442) [µg/mL] | MIC [18] [µg/mL] | MIC [19] [µg/mL] | MIC (ESCHERICHIA COLI H560) [µg/mL] | other results |
| --- | --- | --- | --- | --- | --- | --- | --- | --- | --- | --- | --- | --- | --- | --- | --- | --- | --- | --- | --- | --- | --- |
| CC[C@H]1OC(=O)[C@H](C)C(=O)[C@H](C)[C@@H](O[C@@H]2O[C@H](C)C[C@H](N(C)C)[C@H]2O)[C@](C)(OC)C[C@@H](C)C2=N[C@H](COCc3ccccc3)CN3C(=O)O[C@@]1(C)[C@H]3[C@H]2C [Example 88] | > 100 | > 100 | 0.2 (≈ 0.264 µM) | 0.2 (≈ 0.264 µM) | 0.39 (≈ 0.515 µM) | 100 (≈ 132 µM) | > 100 | > 100 | 0.39 (≈ 0.515 µM) | 1.56 (≈ 2.06 µM) | > 100 | 0.39 (≈ 0.515 µM) | > 100 | 0.2 (≈ 0.264 µM) | 0.2 (≈ 0.264 µM) | 100 (≈ 132 µM) | > 100 | > 100 | > 100 | 100 (≈ 132 µM) | MIC (STR[…] 508; [28]): 0.05 µg/mL (≈ 0.066 µM); MIC (M[…] ATCC 9341; [29]): 0.1 µg/mL (≈ 0.132 µM); MIC ([12]; S. bovis A-5169, unit assumed): 0.02 µg/mL (≈ 0.0264 µM); MIC ([13]; unit assumed): 0.2 µg/mL (≈ 0.264 µM); MIC [14, 30]: > 100 µg/mL; MIC [15]: ≤ 0.005 µg/mL; MIC [16, 31]: > 100 µg/mL; MIC [17, 32]: 6.2 µg/mL (≈ 8.18 µM); MIC [20]: 0.39 µg/mL (≈ 0.515 µM); MIC ([21]; unit assumed): > 100 µg/mL; MIC (ESCHERICHIA COLI DC-2; E. coli DC-2, unit assumed): > 100 µg/mL; MIC (ESCHERICHIA COLI KNK 437): > 100 µg/mL |
| CC[C@H]1OC(=O)[C@H](C)C(=O)[C@H](C)[C@@H](O[C@@H]2O[C@H](C)C[C@H](N(C)C)[C@H]2O)[C@](C)(OC)C[C@@H](C)C2=NC3CN(CCCc4ccccc4)CC3N3C(=O)O[C@@]1(C)[C@H]3[C@H]2C (stereo partly drawn) [Example 111] |  | > 100 | 0.2 (≈ 0.251 µM) |  |  | > 100 | > 100 |  |  | 0.39 (≈ 0.489 µM) | > 100 | 0.2 (≈ 0.251 µM) | 100 (≈ 125 µM) |  | 0.1 (≈ 0.125 µM) | 25 (≈ 31.4 µM) | 0.39 (≈ 0.489 µM) | > 100 | > 100 | 50 (≈ 62.7 µM) | MIC ([22]; S. pyogenes PIU 2548, listed as Ex 111, unit assumed): 0.39 µg/mL (≈ 0.489 µM); MIC ([1]; P. aeruginosa BMH10, listed as Ex 111, unit assumed): > 100 µg/mL; MIC ([4]; S. aureus CMX 553, listed as Ex 111, unit assumed): 0.2 µg/mL (≈ 0.251 µM); MIC ([8]; E. aerogenes ATCC 13048, listed as Ex 111, unit assumed): > 100 µg/mL; MIC ([9]; listed as Ex 111, unit assumed): 0.39 µg/mL (≈ 0.489 µM); MIC (M[…] ATCC 4698; M. luteus ATCC 4698, listed as Ex 111, unit assumed): 0.39 µg/mL (≈ 0.489 µM); MIC (STR[…] 508; S. agalactiae CMX 508, listed as Ex 111, unit assumed): 0.05 µg/mL (≈ 0.0627 µM); MIC (M[…] ATCC 9341; M. luteus ATCC 9341, listed as Ex 111, unit assumed): 0.05 µg/mL (≈ 0.0627 µM); MIC ([12]; S. bovis A-5169, listed as Ex 111, unit assumed): 0.01 µg/mL (≈ 0.0125 µM); MIC ([13]; listed as Ex 111, unit assumed): 0.2 µg/mL (≈ 0.251 µM); MIC ([14]; K. pneumoniae ATCC 8045, listed as Ex 111, unit assumed): > 100 µg/mL; MIC [15]: 0.02 µg/mL (≈ 0.0251 µM); MIC ([16]; P. aeruginosa 5007, listed as Ex 111, unit assumed): 100 µg/mL (≈ 125 µM); MIC [23]: 50 µg/mL (≈ 62.7 µM); MIC ([17]; P. aeruginosa K799/61, listed as Ex 111, unit assumed): 50 µg/mL (≈ 62.7 µM); MIC ([21]; listed as Ex 111, unit assumed): 1.56 µg/mL (≈ 1.96 µM); MIC (ESCHERICHIA COLI DC-2; E. coli DC-2, listed as Ex 111, unit assumed): 100 µg/mL (≈ 125 µM); MIC (ESCHERICHIA COLI KNK 437; listed as Ex 111): > 100 µg/mL |
| C#CCN1CC2N=C3[C@H](C)C[C@@](C)(OC)[C@H](O[C@@H]4O[C@H](C)C[C@H](N(C)C)[C@H]4O)[C@@H](C)C(=O)[C@@H](C)C(=O)O[C@H](CC)[C@@]4(C)OC(=O)N(C2C1)[C@@H]4[C@H]3C (stereo partly drawn) [Example 117] | > 100 | > 100 | 0.78 (≈ 1.09 µM) | 0.78 (≈ 1.09 µM) | 1.56 (≈ 2.18 µM) | > 100 | > 100 | > 100 | 0.78 (≈ 1.09 µM) |  | > 100 | 0.78 (≈ 1.09 µM) | > 100 | 0.39 (≈ 0.544 µM) | 0.2 (≈ 0.279 µM) | > 100 | > 100 | > 100 | > 100 | 50 (≈ 69.7 µM) | MIC ([22]; S. pyogenes PIU 2548, unit assumed): 0.78 µg/mL (≈ 1.09 µM); MIC (STR[…] 508; [28]): 0.05 µg/mL (≈ 0.0697 µM); MIC (M[…] ATCC 9341; [29]): 0.2 µg/mL (≈ 0.279 µM); MIC ([12]; S. bovis A-5169, unit assumed): 0.05 µg/mL (≈ 0.0697 µM); MIC ([13]; unit assumed): 0.78 µg/mL (≈ 1.09 µM); MIC [14, 30]: > 100 µg/mL; MIC [16, 31]: > 100 µg/mL; MIC [23]: > 100 µg/mL; MIC [17, 32]: 3.1 µg/mL (≈ 4.32 µM); MIC [20]: 3.1 µg/mL (≈ 4.32 µM); MIC ([21]; unit assumed): > 100 µg/mL; MIC (ESCHERICHIA COLI DC-2; E. coli DC-2, unit assumed): > 100 µg/mL; MIC (ESCHERICHIA COLI KNK 437): > 100 µg/mL |
